According to ChEMBL document CHEMBL5665443, “Enzyme Inhibitor Single Concentration assay results for EUbOPEN Chemogenomics Library” (2024):

Key:
Settings in all cases: Hit No
[1] = target: Methyl-CpG-binding domain protein 4 (Homo sapiens) (UniProt O95243);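 also: MBD4 activity read as fluorescence at 594 nm from cleavage and release of a quenched duplex DNA oligonucleotide, with APE1 coupled to incise the strand and raise turnover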
Description: Inhibition of MBD4 by quantifying inhibition of MBD4-mediated cleavage and dissociation of quenched duplex DNA oligonucleotides, measured as fluorescence at 594 nm. To generate a functional strand incision and increase turn-over this assay is coupled to APE1.

[2] = target: T1, Adenine DNA glycosylase (Homo sapiens) (UniProt Q9UIF7);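 also: human MUTYH activity read as 594 nm fluorescence from cleavage and release of a quenched DNA duplex, coupled with APE1 for strand incision, lower signal meaning inhibition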
T1 sequence (whole entry): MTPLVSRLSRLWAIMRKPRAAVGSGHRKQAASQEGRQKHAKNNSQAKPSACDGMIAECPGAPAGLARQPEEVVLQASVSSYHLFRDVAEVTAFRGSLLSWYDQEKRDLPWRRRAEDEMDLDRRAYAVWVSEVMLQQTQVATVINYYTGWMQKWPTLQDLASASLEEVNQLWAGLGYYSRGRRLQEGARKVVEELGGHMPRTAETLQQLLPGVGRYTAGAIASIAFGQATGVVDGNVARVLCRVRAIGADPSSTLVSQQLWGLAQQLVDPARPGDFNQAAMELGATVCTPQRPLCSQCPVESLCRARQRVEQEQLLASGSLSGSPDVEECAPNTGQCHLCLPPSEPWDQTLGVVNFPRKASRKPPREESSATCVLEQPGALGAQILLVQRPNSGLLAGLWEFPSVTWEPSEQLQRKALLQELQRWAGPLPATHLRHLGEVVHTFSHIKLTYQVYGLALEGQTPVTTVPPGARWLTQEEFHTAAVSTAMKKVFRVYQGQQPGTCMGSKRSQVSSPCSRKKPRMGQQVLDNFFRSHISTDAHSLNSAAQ
Description: Inhibition of MUTYH by quantifying inhibition of MUTYH-mediated cleavage and dissociation of quenched duplex DNA oligonucleotides, measured as fluorescence at 594 nm. To generate a functional strand incision and increase turn-over this assay is coupled to APE1.

[3] = target: Endonuclease 8-like 1 (Homo sapiens) (UniProt Q96FI4);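 also: fluorescence at 594 nm from quenched duplex DNA oligonucleotides released by NEIL1 cleavage and strand separation, reported as reduction of this enzyme activity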
Description: Inhibition of NEIL1 by quantifying inhibition of NEIL1-mediated cleavage and dissociation of quenched duplex DNA oligonucleotides, measured as fluorescence at 594 nm.

[4] = target: T2, Endonuclease 8-like 2 (Homo sapiens) (UniProt Q969S2);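 also: fluorescence at 594 nm reports NEIL2 cutting and release of a quenched double-stranded DNA oligo substrate, reduced signal read as inhibition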
T2 sequence (whole entry): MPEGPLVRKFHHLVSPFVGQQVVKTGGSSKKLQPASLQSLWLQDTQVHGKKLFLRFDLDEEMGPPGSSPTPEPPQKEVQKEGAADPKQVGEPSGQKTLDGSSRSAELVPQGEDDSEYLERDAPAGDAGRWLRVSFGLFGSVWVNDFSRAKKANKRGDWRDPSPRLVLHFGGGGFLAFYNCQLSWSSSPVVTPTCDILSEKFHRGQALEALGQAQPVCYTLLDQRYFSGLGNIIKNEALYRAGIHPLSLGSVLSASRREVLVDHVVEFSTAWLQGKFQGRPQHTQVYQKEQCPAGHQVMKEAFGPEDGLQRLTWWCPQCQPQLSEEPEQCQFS
Description: Inhibition of NEIL2 by quantifying inhibition of NEIL2-mediated cleavage and dissociation of quenched duplex DNA oligonucleotides, measured as fluorescence at 594 nm.

[5] = target: T3, Endonuclease III-like protein 1 (Homo sapiens) (UniProt P78549);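 also: enzyme assay tracking NTHL1 cutting and release of a quenched double-stranded DNA oligo substrate, read as fluorescence at 594 nm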
T3 sequence (whole entry): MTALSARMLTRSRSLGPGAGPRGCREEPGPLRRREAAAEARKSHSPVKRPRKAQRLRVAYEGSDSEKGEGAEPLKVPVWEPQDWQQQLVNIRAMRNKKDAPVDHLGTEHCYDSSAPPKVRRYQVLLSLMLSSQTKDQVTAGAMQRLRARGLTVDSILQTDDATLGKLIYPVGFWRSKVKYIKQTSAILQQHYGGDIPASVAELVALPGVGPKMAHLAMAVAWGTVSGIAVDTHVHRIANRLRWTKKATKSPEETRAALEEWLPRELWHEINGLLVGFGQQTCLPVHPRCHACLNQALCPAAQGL
Description: Inhibition of NTHL1 by quantifying inhibition of NTHL1-mediated cleavage and dissociation of quenched duplex DNA oligonucleotides, measured as fluorescence at 594 nm.

[6] = target: N-glycosylase/DNA lyase (Homo sapiens) (UniProt O15527);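 also: OGG1 cleavage of a quenched duplex DNA oligonucleotide, coupled to APE1 for strand incision, read as fluorescence at 594 nm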
Description: Inhibition of OGG1 by quantifying inhibition of OGG1-mediated cleavage and dissociation of quenched duplex DNA oligonucleotides, measured as fluorescence at 594 nm. To generate a functional strand incision and increase turn-over this assay is coupled to APE1.

[7] = target: T4, Single-strand selective monofunctional uracil DNA glycosylase (Homo sapiens) (UniProt Q53HV7);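 also: enzymatic SMUG1 assay coupled with APE1, reading fluorescence at 594 nm released when a quenched double-stranded DNA oligonucleotide substrate is cleaved and separated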
T4 sequence (whole entry): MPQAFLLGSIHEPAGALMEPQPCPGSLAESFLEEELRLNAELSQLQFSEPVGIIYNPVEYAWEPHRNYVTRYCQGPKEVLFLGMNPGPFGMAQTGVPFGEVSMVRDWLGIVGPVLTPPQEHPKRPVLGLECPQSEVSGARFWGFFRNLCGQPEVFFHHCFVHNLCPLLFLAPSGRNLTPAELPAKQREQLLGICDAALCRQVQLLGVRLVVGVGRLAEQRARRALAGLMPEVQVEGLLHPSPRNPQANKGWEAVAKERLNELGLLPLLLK
Description: Inhibition of SMUG1 by quantifying inhibition of SMUG1-mediated cleavage and dissociation of quenched duplex DNA oligonucleotides, measured as fluorescence at 594 nm. To generate a functional strand incision and increase turn-over this assay is coupled to APE1.

[8] = target: G/T mismatch-specific thymine DNA glycosylase (Homo sapiens) (UniProt Q13569);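 also: human TDG cleavage of quenched duplex DNA oligonucleotides coupled to APE1, strand release read as fluorescence at 594 nm, inhibition of TDG activity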
Description: Inhibition of TDG by quantifying inhibition of TDG-mediated cleavage and dissociation of quenched duplex DNA oligonucleotides, measured as fluorescence at 594 nm. To generate a functional strand incision and increase turn-over this assay is coupled to APE1.

[9] = target: Uracil-DNA glycosylase (Homo sapiens) (UniProt P13051);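 also: UNG excision on a quenched double-stranded DNA oligo probe, with APE1 added for strand incision and turnover, read as fluorescence at 594 nm as strands separate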
Chain of Uracil-DNA glycosylase (Homo sapiens) (P13051 whole entry): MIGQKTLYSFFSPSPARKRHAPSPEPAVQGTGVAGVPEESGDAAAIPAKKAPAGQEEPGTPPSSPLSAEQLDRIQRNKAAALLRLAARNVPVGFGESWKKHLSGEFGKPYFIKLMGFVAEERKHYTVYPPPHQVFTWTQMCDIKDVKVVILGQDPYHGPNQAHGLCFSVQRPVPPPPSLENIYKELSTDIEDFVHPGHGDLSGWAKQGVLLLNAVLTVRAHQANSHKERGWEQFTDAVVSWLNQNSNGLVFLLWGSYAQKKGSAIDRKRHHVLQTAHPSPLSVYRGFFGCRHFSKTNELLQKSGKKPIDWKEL
Description: Inhibition of UNG by quantifying inhibition of UNG-mediated cleavage and dissociation of quenched duplex DNA oligonucleotides, measured as fluorescence at 594 nm. To generate a functional strand incision and increase turn-over this assay is coupled to APE1.

Chain of G/T mismatch-specific thymine DNA glycosylase (Homo sapiens) (Q13569 whole entry): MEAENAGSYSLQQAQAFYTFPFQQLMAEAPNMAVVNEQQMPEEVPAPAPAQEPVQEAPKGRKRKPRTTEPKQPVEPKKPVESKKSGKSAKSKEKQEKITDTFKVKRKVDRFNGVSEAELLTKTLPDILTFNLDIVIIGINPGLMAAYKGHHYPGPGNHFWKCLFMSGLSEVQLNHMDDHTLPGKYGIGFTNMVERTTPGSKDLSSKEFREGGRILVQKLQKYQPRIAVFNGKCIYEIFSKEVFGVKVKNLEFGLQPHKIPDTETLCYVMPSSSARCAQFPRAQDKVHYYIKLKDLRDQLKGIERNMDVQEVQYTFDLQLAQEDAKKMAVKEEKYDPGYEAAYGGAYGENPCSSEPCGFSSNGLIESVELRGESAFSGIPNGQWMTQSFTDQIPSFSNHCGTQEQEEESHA
Chain of Methyl-CpG-binding domain protein 4 (Homo sapiens) (O95243 whole entry, the tested form may be a part): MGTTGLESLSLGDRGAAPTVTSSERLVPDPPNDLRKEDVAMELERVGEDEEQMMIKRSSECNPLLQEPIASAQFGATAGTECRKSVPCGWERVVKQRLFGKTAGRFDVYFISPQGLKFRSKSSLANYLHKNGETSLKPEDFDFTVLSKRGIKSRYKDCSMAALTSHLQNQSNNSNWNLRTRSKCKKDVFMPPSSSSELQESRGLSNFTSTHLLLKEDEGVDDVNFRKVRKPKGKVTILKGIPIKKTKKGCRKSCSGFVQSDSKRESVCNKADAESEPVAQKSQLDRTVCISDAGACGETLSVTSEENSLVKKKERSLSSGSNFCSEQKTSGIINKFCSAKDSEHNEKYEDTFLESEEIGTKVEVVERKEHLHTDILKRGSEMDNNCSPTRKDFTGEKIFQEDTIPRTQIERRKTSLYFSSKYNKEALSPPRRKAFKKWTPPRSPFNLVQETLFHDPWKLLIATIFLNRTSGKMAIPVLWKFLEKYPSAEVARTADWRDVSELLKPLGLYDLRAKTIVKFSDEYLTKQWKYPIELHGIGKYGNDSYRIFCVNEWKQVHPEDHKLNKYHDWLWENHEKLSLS
Chain of Endonuclease 8-like 1 (Homo sapiens) (Q96FI4 whole entry): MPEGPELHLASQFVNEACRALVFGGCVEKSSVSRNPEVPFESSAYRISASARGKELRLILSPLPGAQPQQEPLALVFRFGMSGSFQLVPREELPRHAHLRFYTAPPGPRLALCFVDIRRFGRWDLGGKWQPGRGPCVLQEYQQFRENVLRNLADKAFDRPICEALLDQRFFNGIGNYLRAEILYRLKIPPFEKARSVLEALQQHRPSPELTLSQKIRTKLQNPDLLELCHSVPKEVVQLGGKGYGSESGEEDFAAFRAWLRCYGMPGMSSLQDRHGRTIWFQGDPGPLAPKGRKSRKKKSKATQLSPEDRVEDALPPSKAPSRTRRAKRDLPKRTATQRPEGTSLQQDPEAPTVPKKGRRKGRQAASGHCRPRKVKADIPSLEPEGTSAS
Chain of N-glycosylase/DNA lyase (Homo sapiens) (O15527 whole entry): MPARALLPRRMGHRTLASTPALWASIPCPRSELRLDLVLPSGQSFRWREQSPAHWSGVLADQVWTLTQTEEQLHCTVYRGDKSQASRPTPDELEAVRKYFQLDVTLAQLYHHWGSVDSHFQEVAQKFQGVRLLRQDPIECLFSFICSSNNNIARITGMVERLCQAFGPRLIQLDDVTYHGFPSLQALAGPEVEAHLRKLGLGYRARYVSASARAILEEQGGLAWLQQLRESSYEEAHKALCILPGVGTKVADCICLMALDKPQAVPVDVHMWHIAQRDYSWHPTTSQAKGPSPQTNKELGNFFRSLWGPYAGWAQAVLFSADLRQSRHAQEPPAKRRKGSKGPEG

Compound | inhibition ([1]; Compound Concentration 10.0 uM) [%] | inhibition ([2]; Compound Concentration 10.0 uM) [%] | inhibition ([3]; Compound Concentration 10.0 uM) [%] | inhibition ([4]; Compound Concentration 10.0 uM) [%] | inhibition ([5]; Compound Concentration 10.0 uM) [%] | inhibition ([6]; Compound Concentration 10.0 uM) [%] | inhibition ([7]; Compound Concentration 10.0 uM) [%] | inhibition ([8]; Compound Concentration 10.0 uM) [%] | inhibition ([9]; Compound Concentration 10.0 uM) [%] | inhibition ([1]; Compound Concentration 1.0 uM) [%] | inhibition ([2]; Compound Concentration 1.0 uM) [%] | inhibition ([3]; Compound Concentration 1.0 uM) [%] | inhibition ([4]; Compound Concentration 1.0 uM) [%] | inhibition ([6]; Compound Concentration 1.0 uM) [%] | inhibition ([7]; Compound Concentration 1.0 uM) [%] | inhibition ([8]; Compound Concentration 1.0 uM) [%] | inhibition ([9]; Compound Concentration 1.0 uM) [%] | inhibition ([5]; Compound Concentration 1.0 uM) [%]
CN(C)c1ncc2cc(-c3ccc(-c4ncccc4F)cc3Cl)c(=O)n(C[C@H]3OC[C@H](N)CO3)c2n1 | -0.894 | 13.7 | 2.65 | 1.58 | -1.31 | -0.214 | 26.9 | 41.3 | 6.12 | – | – | – | – | – | – | – | – | –
CN1CCN(c2ccnc(NCCc3ccccc3)n2)CC1 | 69 | 16.7 | 2.13 | 14.1 | -9.83 | 9.82 | 8.97 | 50.4 | 6.53 | – | – | – | – | – | – | – | – | –
O=c1[nH]c2ccccc2n1CCCN1CCN(C(c2ccccc2)c2ccccc2)CC1 | 57.5 | 1.43 | -7.26 | 5.38 | -3.26 | 10.8 | 20.2 | 97.2 | 4.47 | – | – | – | – | – | – | – | – | –
Cc1cccc(-c2cnc3occ(-c4ccc(C(=O)O)c(C5CCCC5)c4)c3c2)c1 | 33 | 15.7 | 6.08 | -2.46 | 4.27 | 66.5 | 18.9 | 36.3 | -0.203 | – | – | – | – | – | – | – | – | –
Cc1cc(SCc2sc(-c3ccc(C(F)(F)F)cc3)nc2C)ccc1OCC(=O)O | 60 | 14.6 | -2.11 | 1.55 | 17.8 | 62.7 | 18.5 | 98.5 | -0.945 | – | – | – | – | – | – | – | – | –
O=C(O)c1cc(F)c2nc(N3[C@@H]4CC[C@H]3C[C@@H](OCc3c(-c5ccccc5OC(F)(F)F)noc3C3CC3)C4)sc2c1 | 61.7 | 11.9 | -9.38 | -1.76 | 10.6 | 67.8 | 17.7 | 99.3 | 4.52 | – | – | – | – | – | – | – | – | –
CC1(C)CCC(C)(C)c2cc(NC(=O)c3ccc(C(=O)O)cc3)ccc21 | 58.9 | 0.879 | -4.53 | 4.36 | 1.34 | 31.6 | 7.75 | 47.2 | 0.0471 | – | – | – | – | – | – | – | – | –
CCOc1cc(N2CCC(O)CC2)ccc1Nc1ncc2c(n1)N(C)c1ccccc1C(=O)N2C | 17.2 | 18.6 | -3.56 | 2.66 | 1.48 | -8.63 | 19.5 | 59.4 | 12.3 | – | – | – | – | – | – | – | – | –
CC(=O)Nc1nc(CN2CCC[C@H](Cc3cc(C)nc(C)c3)C2)cs1 | 81.4 | 17.8 | 1.68 | 3.85 | 9.23 | 13.6 | 19 | 45.8 | 7.98 | – | – | – | – | – | – | – | – | –
CCO[C@H](COc1ccc(C(F)(F)F)cc1)CSc1ccc(OCC(=O)O)c(C)c1 | 71.4 | 16.2 | -4.99 | 3.59 | -4.57 | 20.8 | 20.8 | 59.2 | 6.42 | – | – | – | – | – | – | – | – | –
Fc1ccc(-c2c3cccc(C(F)(F)F)c3nn2Cc2ccc(F)cc2Cl)cc1 | 53.9 | 1.43 | -7.41 | -0.489 | -1.29 | 8 | 12.2 | 53.1 | 4.08 | – | – | – | – | – | – | – | – | –
CN(CCOc1ccc(C[C@H](Nc2ccccc2C(=O)c2ccccc2)C(=O)O)cc1)c1ccccn1 | 67 | -3.55 | 5.16 | 4.36 | -4.57 | 24.7 | 8.44 | 30.8 | -0.00636 | – | – | – | – | – | – | – | – | –
CC[C@H](Nc1c(C#N)c(-c2ccc(-c3cccc(C)c3F)cc2)nc2cnccc12)C(=O)O | 59.4 | 34.2 | 1.86 | -0.764 | 5.22 | 43.2 | 12 | 51.7 | 6.04 | – | – | – | – | – | – | – | – | –
O=C(Nc1cccnc1)c1cc(-c2ccnc(F)c2)ccc1OCc1ccccc1 | 20.7 | 3.77 | -5.94 | -3.53 | 4.27 | 6.84 | 25.3 | 52.5 | 2.47 | – | – | – | – | – | – | – | – | –
C[C@@H]1CN(c2cc(-c3nn(C)c4ccc(OC5(C)CC5)cc34)ncn2)C[C@H](C)O1 | 67.5 | -0.542 | 4.71 | 1.04 | -7.86 | – | 15.6 | 63 | 4.62 | 101 | -9.65 | -5.67 | -5.15 | 11.8 | 3.32 | 34.4 | -5.93 | –
CNC(=O)c1cc(C(=O)N[C@H]2[C@@H]3COC[C@@H]32)cc2c1O[C@@H](CF)[C@@H]2c1ccccc1 | 54.8 | -6.61 | 6.68 | 8.44 | -3.92 | 6.72 | 8.28 | 52.5 | 4.27 | – | – | – | – | – | – | – | – | –
COc1ccccc1Nc1nc(-c2nn(Cc3c(F)cc(OCCCO)cc3F)c3ccccc23)ncc1OC | 57 | -2.18 | -6.35 | 3.85 | – | 4.46 | 13 | 97.1 | 2.87 | 54.1 | – | -4.09 | – | – | 10.9 | 39 | 0.477 | -4.79
CC(C)S(=O)(=O)c1ccc2nccc(Nc3ccc4scnc4c3)c2c1 | 9.41 | 18.3 | -7.92 | 1.58 | 9.85 | 12 | 32.3 | 49.5 | 8 | – | – | – | – | – | – | – | – | –
Cc1nc(C2CCN(C(=O)c3ccc(OC(F)(F)F)cc3N)CC2)c2ncc(N3CCN(C)CC3)cc2n1 | 30.1 | 9.15 | -5.75 | -4.68 | -0.379 | 7.7 | 17.5 | 61.5 | 7.52 | – | – | – | – | – | – | – | – | –
COc1cc(-c2cn[nH]c2)ccc1C(=O)Nc1ccc2c(c1)CCNCC2 | 13.6 | -0.48 | -5.41 | 3.2 | -8.28 | 2.14 | 20.2 | 37.4 | 2.84 | – | – | – | – | – | – | – | – | –
CC(C)(O)CNc1ncc(-c2ccnc(Nc3ccnc(Cl)c3)n2)c(CC2CC2)n1 | -8.47 | 0.0658 | -7.52 | -9.73 | 5.67 | -4.97 | 21.2 | 44.6 | -2.03 | – | – | – | – | – | – | – | – | –
